US6040320A, “2-substituted imidazoles useful in the treatment of inflammatory diseases” (Ortho-McNeil Pharmaceutical, Inc., priority 1998, dated 2000)
Where two headings read alike, the source gives them in different places.

Columns and labels:
[1] = biological target: T1, p38 (Homo sapiens, UniProt Q16539); experiment: in vitro inhibition of p38 (CPSB): purified recombinant 6xHis-p38, myelin basic protein substrate, 33P-ATP; type: biochemical
T1 construct: 6xHis (N); made in house; host or cells: E. coli
Protocol: Compounds of the invention were measured for their ability to inhibit the activity of p38 by the following in vitro assay.
A solution (38 μL) of purified recombinant p38 (where the amount of enzyme was determined empirically considering the linear range of the assay and the acceptable signal to noise ratio; 6xHis-p38 expressed in E.coli), myelin basic protein substrate (also determined empirically), a buffer of pH 7.5 (Hepes:25 mM, MgCl2 :10 mM, MnCl2 :10 mM) were added to 92 wells of a 96-well round bottom polypropylene plate. The remaining wells were used for control ("CTRL") and background ("BKG"). The CTRL was prepared with the enzyme, substrate buffer and 2% DMSO, and the BKG was prepared with substrate buffer and 2% DMSO. A solution (12 μL) of the test compound in DMSO (compounds were diluted to 125 μM in 10% DMSO/H2 O and assayed at 25 μM where the final DMSO concentration was 2%) was added to the testing wells. The ATP/^33 P-ATP solution (10 μL: containing 50 μM unlabeled ATP and 1 μCi ^33 P-ATP) was added to all wells and the completed plates were mixed and incubated at 30° C. for 30 min. Icecold 50% TCA/10 mM sodium phosphate (60 μL) were added to each well and the plates were kept on ice for 15 min. The contents of each well were transferred to the wells of a 96-well filterplate (Millipore, MultiScreen-DP) and the filterplate was placed on a vacuum manifold, fitted with a waste collection tray. The wells were washed five times with 10% TCA/10 mM sodium phosphate (200 μL) under vacuum. MicroScint-20 scintillant was added, the plates were sealed using Topseal-S sheets and counted in a Packard TopCount scintillation counter using a ^33 P liquid program with color quench correction, where the output is in color quench-corrected cpm. The % inhibition of the test compounds was calculated by the following formula: % inhibition=[1-(sample-BKG)/(CTRL-BKG)]×100.
Although compounds were initially tested at 25 μM, if warranted the compounds were tested at 4-fold increments above and below that concentration. In addition, lC50 s were calculated for some compounds using the Deltagraph 4-parameter curve fitting program.

[2] = test system: TNF-α; experiment: in vitro whole cell assay: LPS-stimulated TNF-α production in PBMC (ELISA); type: cell-based, human; settings: for IC50: read-out: TNF-α IC50
Protocol: In addition to the enzyme assay, the compounds of the invention were tested in an in vitro whole cell assay using peripheral blood mononuclear cells ("PBMC") which were obtained from human blood as follows. Freshly obtained venous blood was anticoagulated with heparin, diluted with an equal volume of phosphate buffered saline ("PBS") and placed in a sterile tube or other container. Aliquots (30 mL) of this mixture were transferred to centrifuge tubes which were underlaid with Ficoll-Hypaque (15 mL). The prepared tubes were centrifuged at 400×g without braking for 30 min at room temperature. Approximately 1/2 to 2/3 of the platelet layer above the mononuclear cell band was removed with a pipet. The majority of the mononuclear cell layer was carefully removed using a pipet and these PBMCs were diluted with PBS and spun at 600×g for 15 min. The resulting PBMCs were washed with another portion of PBS and spun at 400×g for 10 min at room temperature. The recovered pellets were diluted in low endotoxin RPMI/1% FCS culture medium and gave a cell concentration of 0.5-2.0 X 10^6 PMBC/mL. A small volume of the suspension was removed for counting on a hemocytometer and the remaining preparation was centrifuged at 200×g for 15 min at room temperature. The recovered pelleted PMBC were resuspended in RPMI/1% FCS to a concentration of 1.67×10^6 /mL.
To run the assay, the PBMC suspension (180 μL) was transferred to duplicate wells of a 96-well flat-bottom microtiter plate and incubated for 1 h at 37° C. A solution of test compound (10 μL: prepared at 20×the desired final concentration) was added to each well and the plate was incubated for 1 h at 37° C. A solution (10 μL) of LPS in RPMI/1% FCS (200 ng/mL) was added and the wells were incubated overnight at 37° C. The supernate (100 μL) was removed from each well and diluted with RPMI/1% FCS (400 μL). The samples were analyzed for TNF-α using a commercial ELISA kit (Genzyme). […] Since imidazoles which are unsubstituted at the 1-position are subject to tautomerization, the substituents listed for R1 and R2 are interchangeable when R3 is hydrogen.

[3] = test system: IL-1β; experiment: in vitro IL-1β production by LPS-stimulated plastic-adherent cells from PBMC (ELISA); type: cell-based; settings: adherent cells from human PBMC, read-out: inhibited the production of IL-1B, IC50
Protocol: Aliquots (30 mL) of this mixture were transferred to centrifuge tubes which were underlaid with Ficoll-Hypaque (15 mL). The prepared tubes were centrifuged at 400×g without braking for 30 min at room temperature. […] A small volume of the suspension was removed for counting on a hemocytometer and the remaining preparation was centrifuged at 200×g for 15 min at room temperature.

[4] = test system: TNF-α; experiment: in vivo rodent assay: inhibition of LPS induced TNF-α production, mouse; settings: oral, 25 mg/kg, LPS 1 mg/kg i.p.
Protocol: Mice (BALB / cJ females, Jackson Laboratories) or rats (Lewis males, Charles River) were fasted for 30 min prior to oral dosing with 5-10 mL/kg of test compound at 5-50 mg/kg. Thirty minutes after dosing, the animals were injected intraperitoneally with LPS at 1 mg/kg and returned to their cages for I h. Animals were anesthetized by CO2, exsanguinated by cardiac puncture and whole blood collected (0.1-0.7 mL). The blood was allowed to clot and serum was transferred to a centrifuge tube. This sample was centrifuged, serum was collected, aliquoted and frozen at -80° C. Samples were tested by commercial ELISAs for TNF-α (Endogen for mouse TNF-α and Biosource for rat TNF-α). Compounds 15 and 56 inhibited TNF-α production in the mouse at 88% and 37% respectively at a dose of 25 mg/kg.

T1 sequence (Q16539 whole entry): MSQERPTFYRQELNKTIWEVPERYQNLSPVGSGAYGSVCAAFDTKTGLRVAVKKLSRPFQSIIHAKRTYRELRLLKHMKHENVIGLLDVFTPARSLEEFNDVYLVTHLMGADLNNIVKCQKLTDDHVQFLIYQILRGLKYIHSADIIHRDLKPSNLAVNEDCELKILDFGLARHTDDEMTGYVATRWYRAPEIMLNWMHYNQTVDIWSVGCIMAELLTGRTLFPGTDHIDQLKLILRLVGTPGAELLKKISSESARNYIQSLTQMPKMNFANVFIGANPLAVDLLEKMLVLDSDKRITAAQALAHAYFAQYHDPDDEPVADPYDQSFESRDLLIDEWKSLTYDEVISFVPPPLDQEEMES

| SMILES | IC50 [1] [nM] | IC50 ([2]; Homo sapiens, PBMC) [nM] | IC50 ([2]; human PBMC, LPS) [nM] | also measured |
| --- | --- | --- | --- | --- |
| O=C(NCCCSc1nc(-c2ccncc2)c(-c2ccc(F)cc2)[nH]1)c1cccs1 [Compound 4, 5(4)-(4-Fluorophenyl)-2-(3-(thien-2-ylamido)prop-1-yl)thio-4(5)-(4-pyridyl)-imidazole] | 1250 | 10 |  |  |
| O=Cc1nc(-c2ccncc2)c(-c2ccc(F)cc2)[nH]1 [Compound 8, 5(4)-(4-Fluorophenyl)-4(5)-(4-pyridyl)-2-imidazole carboxaldehyde] | 800 | 140 |  |  |
| O=C(CCCO)c1nc(-c2ccncc2)c(-c2ccc(F)cc2)[nH]1 [Compound 10, 4-Hydroxy-1-[5-(4-fluorophenyl)-4-(4-pyridyl)-imidazol-2-yl]butanone] |  |  | 400 | IC50 [3]: 800 nM |
| O=S(=O)(CCO)Cc1nc(-c2ccncc2)c(-c2ccc(F)cc2)[nH]1 [Compound 15, 5-(4-Fluorophenyl)-2-[4-hydroxy-2-sulfonyl-but-1-yl]-4-(4-pyridyl)-imidazole] |  |  | 40 | inhibited TNF-α production in the mouse [4]: 88% |
| OCCCCc1nc(-c2ccncc2)c(-c2ccc(F)cc2)[nH]1 [Compound 16b, 4-[5(4)-(4-Fluorophenyl)4(5)-(4-pyridyl)imidazol-2-yl]butanol] | 1590 | 10 |  |  |
| CC(=O)OCCCCc1nc(-c2ccc(F)cc2)c(-c2ccncc2)n1Cc1ccccc1 [Compound 17, 4-[1-Benzyl-4-(4-fluorophenyl)-5-(4-pyridyl)imidazol-2-yl]butyl acetate] | 2630 | 500 |  |  |
| O=C1c2ccccc2C(=O)N1CCSc1nc(-c2ccc(F)cc2)c(-c2ccncc2)[nH]1 [Compound 25] |  |  | 500 | CPSB % inhibition ([1]; @ 5 μm): 52% |
| O=C(NCCCSc1nc(-c2ccncc2)c(-c2ccc(F)cc2)[nH]1)c1ccccc1 [Compound 26] | 2180 | 100 |  |  |
| O=C1c2ccccc2C(=O)N1CCCCSc1nc(-c2ccncc2)c(-c2ccc(F)cc2)[nH]1 [Compound 27] | 2460 | 2000 |  |  |
| O=C(NCCCSc1nc(-c2ccncc2)c(-c2ccc(F)cc2)[nH]1)c1cccc2ccccc12 [Compound 28] | 1250 | 97 |  | IC50 [3]: 86 nM |
| O=C(NCCCSc1nc(-c2ccc(F)cc2)c(-c2ccncc2)[nH]1)c1ccco1 [Compound 29] |  |  | 112 | CPSB % inhibition ([1]; @ 20 μm): 91% |
| O=S(=O)(NCCCSc1nc(-c2ccc(F)cc2)c(-c2ccncc2)[nH]1)c1ccccc1 [Compound 30] |  |  | 100 | CPSB % inhibition ([1]; @ 20 μm): 92% |
| CC(=O)OCCCCc1nc(-c2ccncc2)c(-c2ccc(F)cc2)n1COCC[Si](C)(C)C [Compound 45] |  |  |  | CPSB % inhibition ([1]; @ 20 μm): 8%; TNF-α inhibition in words ([2]; human PBMC, LPS): inactive |
| C[Si](C)(C)CCOCn1c(CCCCO)nc(-c2ccncc2)c1-c1ccc(F)cc1 [Compound 46] |  |  |  | CPSB % inhibition ([1]; @ 20 μm): 9%; TNF-α inhibition in words ([2]; human PBMC, LPS): inactive |
| O=C1c2ccccc2C(=O)N1CCCn1c(CO)nc(-c2ccc(F)cc2)c1-c1ccncc1 [Compound 56] |  |  | 30 | inhibited TNF-α production in the mouse [4]: 37% |
| CCCS(=O)(=O)Cc1nc(-c2ccncc2)c(-c2ccc(F)cc2)[nH]1 [Compound 59] |  |  | 55 | IC50 [3]: 350 nM |
